The results in this text go back to patent US20250346597A1, “CONDENSED HETEROCYCLIC COMPOUNDS AS INHIBITOR OF DIACYLGLYCEROL KINASES” (BEONE MEDICINES I GMBH, priority 2023, published 2025).

As a reminder, the IC50 is the midpoint of a concentration-inhibition curve.

For one assay, the target named is DGKζ (Homo sapiens (Human), UniProt Q13574). Nature of the assay: Biochemical DGK IC50 assay (ADP-Glo, lipid micelle substrate), DGKζ. Particulars: full length DGKζ 0.5 nM, ATP 140 μM, DAG 80 μM. In outline: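 Full-length human His-TEV-tagged DGKζ, expressed in Sf9 cells and purified, was run at room temperature on DAG/PS lipid micelles in 50 mM HEPES, 10 mM MgCl2, 0.01 mM CaCl2 buffer. After 1 h reaction, ADP formed was detected by ADP-Glo luminescence. IC50s came from inhibition across increasing compound concentrations.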

In another assay the target is DGKα (Homo sapiens (Human), UniProt P23743). Nature of the assay: Biochemical DGK IC50 assay (ADP-Glo, lipid micelle substrate), DGKα. Further: full length DGKα 7.5 nM. Particulars: full length DGKα […], ATP 140 μM, DAG 80 μM. In outline: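 Full-length human DGKα assayed by ADP-Glo with DAG/PS lipid micelle substrate at room temperature in 50 mM HEPES, 10 mM MgCl2, 0.01% BSA, 0.1 mM Na3VO4, 0.005% Tween-20, 0.01 mM CaCl2.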
For orientation: In ADP-Glo the light output rises with the ADP produced.

DGKα, sequence (P23743 whole entry): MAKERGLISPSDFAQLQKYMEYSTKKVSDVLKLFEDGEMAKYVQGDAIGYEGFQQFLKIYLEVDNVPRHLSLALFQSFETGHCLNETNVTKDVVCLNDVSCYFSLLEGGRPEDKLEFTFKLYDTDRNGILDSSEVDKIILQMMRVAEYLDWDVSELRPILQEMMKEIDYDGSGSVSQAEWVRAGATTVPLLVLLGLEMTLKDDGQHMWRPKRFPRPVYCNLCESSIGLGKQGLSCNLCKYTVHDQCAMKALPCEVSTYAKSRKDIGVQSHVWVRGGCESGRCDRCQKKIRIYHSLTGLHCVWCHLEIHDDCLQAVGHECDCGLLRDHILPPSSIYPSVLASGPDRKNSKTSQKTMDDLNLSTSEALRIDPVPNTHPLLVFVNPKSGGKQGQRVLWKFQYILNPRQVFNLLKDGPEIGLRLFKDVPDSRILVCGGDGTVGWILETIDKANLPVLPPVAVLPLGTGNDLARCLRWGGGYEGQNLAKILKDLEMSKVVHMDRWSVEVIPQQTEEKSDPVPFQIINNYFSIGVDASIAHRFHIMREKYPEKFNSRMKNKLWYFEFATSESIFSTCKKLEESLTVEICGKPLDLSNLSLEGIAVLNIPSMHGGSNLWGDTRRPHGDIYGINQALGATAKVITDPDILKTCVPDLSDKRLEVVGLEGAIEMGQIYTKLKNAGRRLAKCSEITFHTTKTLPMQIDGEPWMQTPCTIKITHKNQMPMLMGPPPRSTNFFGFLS
DGKζ, sequence (Q13574 other isoform, or with tags, fused parts or gaps): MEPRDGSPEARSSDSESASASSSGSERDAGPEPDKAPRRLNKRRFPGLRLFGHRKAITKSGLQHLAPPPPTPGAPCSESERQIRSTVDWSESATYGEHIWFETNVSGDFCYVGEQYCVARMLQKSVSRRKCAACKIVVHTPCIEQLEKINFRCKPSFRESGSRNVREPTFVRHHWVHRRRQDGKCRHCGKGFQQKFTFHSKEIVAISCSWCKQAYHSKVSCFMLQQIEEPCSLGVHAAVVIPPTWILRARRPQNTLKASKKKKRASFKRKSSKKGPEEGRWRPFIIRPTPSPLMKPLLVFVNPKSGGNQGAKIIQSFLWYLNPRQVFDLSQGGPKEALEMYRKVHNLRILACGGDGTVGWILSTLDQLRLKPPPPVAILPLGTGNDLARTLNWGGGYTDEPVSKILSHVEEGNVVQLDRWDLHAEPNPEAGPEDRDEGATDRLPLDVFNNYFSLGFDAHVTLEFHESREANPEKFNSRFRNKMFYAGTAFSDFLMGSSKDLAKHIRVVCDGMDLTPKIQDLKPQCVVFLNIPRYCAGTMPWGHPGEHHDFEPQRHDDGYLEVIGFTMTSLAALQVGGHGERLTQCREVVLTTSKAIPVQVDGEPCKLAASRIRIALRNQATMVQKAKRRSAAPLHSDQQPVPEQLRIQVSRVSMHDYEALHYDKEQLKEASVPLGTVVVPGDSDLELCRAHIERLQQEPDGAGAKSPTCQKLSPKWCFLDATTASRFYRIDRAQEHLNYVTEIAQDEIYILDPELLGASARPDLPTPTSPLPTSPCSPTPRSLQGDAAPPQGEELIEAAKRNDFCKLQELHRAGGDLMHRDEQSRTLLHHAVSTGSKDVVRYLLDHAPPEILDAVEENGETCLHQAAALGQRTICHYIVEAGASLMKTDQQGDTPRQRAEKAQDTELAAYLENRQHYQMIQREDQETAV

For the molecule `CC[C@H]1CN(C(C)c2ccc3ncsc3c2)[C@H](CC)CN1c1nc(=O)n(C)c2cn(CC#N)nc12` (stereo partly drawn) [Compound A123, 2-(7-((2S,5R)-4-(1-(benzo[d]thiazol-6-yl)ethyl)-2,5-diethylpiperazin-1-yl)-4-methyl-5-oxo-4,5-dihydro-2H-pyrazolo[4,3-d]pyrimidin-2-yl)acetonitrile], the half-maximal inhibitory concentration (IC50) against DGKζ was 11 nM; at DGKα, 111 nM.

Turning to `CC[C@H]1CN(C(C)c2ccc3nc(C)sc3c2)[C@H](CC)CN1c1nc(=O)n(C)c2cn(CC#N)nc12` (stereo partly shown) [Compound A124], the 50% inhibitory concentration (IC50) against DGKζ amounted to 39 nM; at DGKα it was 433 nM.

Turning to `CC[C@@H]1CN(c2cc(=O)n(C)c3cn(CC#N)nc23)[C@@H](C)CN1C(C)c1ccc2ccsc2n1` (stereo partly shown) [Compound A130], the half-inhibitory concentration (IC50) at DGKζ came out at 46 nM; against DGKα it was 215 nM.

As for `CC[C@@H]1CN(c2cc(=O)n(C)c3cn(CC#N)nc23)[C@@H](C)CN1C(C)c1ccc2cc(C)sc2n1` (stereo partly drawn) [Compound A131, 2-(7-((2S,5R)-5-ethyl-2-methyl-4-(1-(2-methylthieno[2,3-b]pyridin-6-yl)ethyl)piperazin-1-yl)-4-methyl-5-oxo-4,5-dihydro-2H-pyrazolo[4,3-b]pyridin-2-yl)acetonitrile], the IC50 came to 26 nM at DGKζ and 246 nM on DGKα.

Consider `CC[C@@H]1CN(c2cc(=O)n(C)c3cn(CC#N)nc23)[C@@H](C)CN1C(C)c1ccc2cc(F)sc2n1` (stereo partly drawn) [Compound A132, 2-(7-((2S,5R)-5-ethyl-4-(1-(2-fluorothieno[2,3-b]pyridin-6-yl)ethyl)-2-methylpiperazin-1-yl)-4-methyl-5-oxo-4,5-dihydro-2H-pyrazolo[4,3-b]pyridin-2-yl)acetonitrile], for which the IC50 worked out at 139 nM at DGKζ and 63 nM against DGKα.

As to `CC#CCn1cc2c(n1)c(N1C[C@@H](CC)N(C(C)c3ccc4nc(C)sc4n3)C[C@@H]1CC)cc(=O)n2C` (stereo partly shown) [Compound A137], the IC50 on DGKζ was determined as 118 nM; at DGKα, 13 nM.

In the case of `Cc1cc2nc(C(C)N3C[C@H](C)N(c4cc(=O)n(C)c5cn(CC#N)nc45)C[C@H]3C)ccc2s1` (stereo partly drawn) [Compound A155, 2-(7-((2S,5R)-2,5-dimethyl-4-(1-(2-methylthieno[3,2-b]pyridin-5-yl)ethyl)piperazin-1-yl)-4-methyl-5-oxo-4,5-dihydro-2H-pyrazolo[4,3-b]pyridin-2-yl)acetonitrile], the figures for the IC50 on DGKζ and at DGKα were 74 nM and 378 nM, respectively.

Take `CC[C@H]1CN(C(C)c2ccn3nc(Cl)cc3n2)[C@H](CC)CN1c1cc(=O)n(C)c2cn(CC#N)nc12` (stereo partly drawn) [Compound A175, 2-(7-((2S,5R)-4-(1-(2-chloropyrazolo[1,5-a]pyrimidin-5-yl)ethyl)-2,5-diethylpiperazin-1-yl)-4-methyl-5-oxo-4,5-dihydro-2H-pyrazolo[4,3-b]pyridin-2-yl)acetonitrile]: the figures for the IC50 at DGKζ and at DGKα were 79 nM and 32 nM, respectively.

Regarding `CC[C@H]1CN(C(C)c2cn3ncccc3n2)[C@H](CC)CN1c1cc(=O)n(C)c2cn(CC#N)nc12` (stereo partly drawn) [Compound A180, 2-(7-((2S,5R)-2,5-diethyl-4-(1-(imidazo[1,2-b]pyridazin-2-yl)ethyl)piperazin-1-yl)-4-methyl-5-oxo-4,5-dihydro-2H-pyrazolo[4,3-b]pyridin-2-yl)acetonitrile], the 50% inhibitory concentration (IC50) came out at 1180 nM against DGKζ and 2450 nM on DGKα.

As for `CC[C@H]1CN(C(C)c2nc3cccnc3s2)[C@H](CC)CN1c1cc(=O)n(C)c2cn(CC#N)nc12` (stereo partly drawn) [Compound A181, 2-(7-((2S,5R)-2,5-diethyl-4-(1-(thiazolo[5,4-b]pyridin-2-yl)ethyl)piperazin-1-yl)-4-methyl-5-oxo-4,5-dihydro-2H-pyrazolo[4,3-b]pyridin-2-yl)acetonitrile], the IC50 at DGKζ stood at 178 nM; against DGKα it was 470 nM.

As to `CC[C@H]1CN(C(C)c2ccc(CN3CCC(F)(F)CC3)cn2)[C@H](CC)CN1c1cc(=O)n(C)c2cn(CC#N)nc12` (stereo partly drawn) [Compound A182, 2-(7-((2S,5R)-4-(1-(5-((4,4-difluoropiperidin-1-yl)methyl)pyridin-2-yl)ethyl)-2,5-diethylpiperazin-1-yl)-4-methyl-5-oxo-4,5-dihydro-2H-pyrazolo[4,3-b]pyridin-2-yl)acetonitrile], the figures for the IC50 on DGKζ and against DGKα were 281 nM and 54 nM, respectively.

As to `CC[C@H]1CN(C(C)c2ccc(CC3COC3)cc2)[C@H](CC)CN1c1cc(=O)n(C)c2cn(CC#N)nc12` (stereo partly drawn) [Compound A183, 2-(7-((2S,5R)-2,5-diethyl-4-(1-(4-(oxetan-3-ylmethyl)phenyl)ethyl)piperazin-1-yl)-4-methyl-5-oxo-4,5-dihydro-2H-pyrazolo[4,3-b]pyridin-2-yl)acetonitrile], the IC50 came out at 517 nM at DGKζ and 48.2 nM at DGKα.

Turning to `CC[C@H]1CN(C(C)c2ccc3c(c2)OCO3)[C@H](CC)CN1c1cc(=O)n(C)c2cn(CC#N)nc12` (stereo partly drawn) [Compound A185, 2-(7-((2S,5R)4-(1-(benzo[d][1,3]dioxol-5-yl)ethyl)-2,5-diethylpiperazin-1-yl)-4-methyl-5-oxo-4,5-dihydro-2H-pyrazolo[4,3-b]pyridin-2-yl)acetonitrile], the IC50 is 66.4 nM at DGKζ and 164 nM against DGKα.

As for `CC[C@H]1CN(C(C)c2ccc(CC#N)cc2)[C@H](CC)CN1c1cc(=O)n(C)c2cn(CC#N)nc12` (stereo partly drawn) [Compound A190, 2-(4-(1-((2R,5S)-4-(2-(cyanomethyl)-4-methyl-5-oxo-4,5-dihydro-2H-pyrazolo[4,3-b]pyridin-7-yl)-2,5-diethylpiperazin-1-yl)ethyl)phenyl)acetonitrile], the IC50 stood at 651 nM against DGKζ and 45 nM against DGKα.

For `CC[C@H]1CN(C(C)c2ccc(C#N)cc2)[C@H](CC)CN1c1cc(=O)n(C)c2cn(CC#N)nc12` (stereo partly drawn) [Compound A191, 4-(1-((2R,5S)-4-(2-(cyanomethyl)-4-methyl-5-oxo-4,5-dihydro-2H-pyrazolo[4,3-b]pyridin-7-y)-2,5-diethylpiperazin-1-yl)ethyl)benzonitrile], the IC50 was 285 nM at DGKζ and less than 23.3 nM on DGKα.

In the case of `CC[C@H]1CN(C(C)c2ccc(CN3CCS(=O)(=O)CC3)cc2)[C@H](CC)CN1c1cc(=O)n(C)c2cn(CC#N)nc12` (stereo partly drawn) [Compound A192, 2-(7-((2S,5R)-4-(1-(4-((1,1-dioxidothiomorpholino)methyl)phenyl)ethyl)-2,5-diethylpiperazin-1-yl)-4-methyl-5-oxo-4,5-dihydro-2H-pyrazolo[4,3-b]pyridin-2-yl)acetonitrile], the IC50 stood at 579 nM on DGKζ and 729 nM against DGKα.

Regarding `CC[C@H]1CN(C(C)c2cc3c(cn2)OCC3)[C@H](CC)CN1c1cc(=O)n(C)c2cn(CC#N)nc12` (stereo partly drawn) [Compound A196, 2-(7-((2S,5R)-4-(1-(2,3-dihydrofuro[2,3-c]pyridin-5-yl)ethyl)-2,5-diethylpiperazin-1-yl)-4-methyl-5-oxo-4,5-dihydro-2H-pyrazolo[4,3-b]pyridin-2-yl)acetonitrile], the IC50 against DGKζ is 552 nM; on DGKα, 1020 nM.

For the molecule `CC[C@H]1CN(C(C)c2ccc3c(c2)OC(F)(F)O3)[C@H](CC)CN1c1cc(=O)n(C)c2cn(CC#N)nc12` (stereo partly drawn) [Compound A197, 2-(7-((2S,5R)-4-(1-(2,2-difluorobenzo[d][1,3]dioxol-5-yl)ethyl)-2,5-diethylpiperazin-1-yl)-4-methyl-5-oxo-4,5-dihydro-2H-pyrazolo[4,3-b]pyridin-2-yl)acetonitrile], the IC50 was found to be 252 nM on DGKζ and 711 nM against DGKα.

With `CC[C@H]1CN(C(C)c2ccc(CS(C)(=O)=O)cc2)[C@H](CC)CN1c1cc(=O)n(C)c2cn(CC#N)nc12` (stereo partly drawn) [Compound A198, 2-(7-((2S,5R)-2,5-diethyl-4-(1-(4-((methylsulfonyl)methyl)phenyl)ethyl)piperazin-1-yl)-4-methyl-5-oxo-4,5-dihydro-2H-pyrazolo[4,3-b]pyridin-2-yl)acetonitrile], the IC50 on DGKζ amounted to 5560 nM; against DGKα it was 91 nM.

For `CC[C@H]1CN(C(C)c2ccc(C(C)(F)F)nc2)[C@H](CC)CN1c1cc(=O)n(C)c2cn(CC#N)nc12` (stereo partly drawn) [Compound A199, 2-(7-((2S,5R)-4-(1-(6-(1,1-difluoroethyl)pyridin-3-yl)ethyl)-2,5-diethylpiperazin-1-yl)-4-methyl-5-oxo-4,5-dihydro-2H-pyrazolo[4,3-b]pyridin-2-yl)acetonitrile], the IC50 was determined as 112 nM against DGKζ and 2170 nM against DGKα.

For `CC#CCn1cc2c(n1)c(N1C[C@@H](CC)N(C(C)c3ccc4c(n3)OCC4)C[C@@H]1C)cc(=O)n2C` (stereo partly drawn) [Compound A200, 2-(but-2-yn-1-yl)-7-((2S,5R)-4-(1-(2,3-dihydrofuro[2,3-b]pyridin-6-yl)ethyl)-5-ethyl-2-methylpiperazin-1-yl)-4-methyl-2,4-dihydro-5H-pyrazolo[4,3-b]pyridin-5-one], the IC50 at DGKζ is 991 nM; against DGKα, less than 23.3 nM.

On to `CC[C@H]1CN(C(C)c2ccc(OC3CC3)cn2)[C@H](CC)CN1c1cc(=O)n(C)c2cn(CC#N)nc12` (stereo partly drawn) [Compound A201, 2-(7-((2S,5R)-4-(1-(5-cyclopropoxypyridin-2-yl)ethyl)-2,5-diethylpiperazin-1-yl)-4-methyl-5-oxo-4,5-dihydro-2H-pyrazolo[4,3-b]pyridin-2-yl)acetonitrile], for which the IC50 at DGKζ is 123 nM; on DGKα, 43 nM.

For `CC[C@H]1CN(C(C)c2ccc(C(=O)N3CCC(OC)C3)cc2)[C@H](CC)CN1c1cc(=O)n(C)c2cn(CC#N)nc12` (stereo partly drawn) [Compound A202, 2-(7-((2S,5R)-2,5-diethyl-4-(1-(4-(3-methoxypyrrolidine-1-carbonyl)phenyl)ethyl)piperazin-1-yl)-4-methyl-5-oxo-4,5-dihydro-2H-pyrazolo[4,3-b]pyridin-2-yl)acetonitrile], the IC50 turned out to be 3210 nM at DGKζ and 352 nM against DGKα.
